88 molecules from a melting point compilation (Tetko et al.; mined from patent text by program, amines drawn as free bases though some values may be those of a salt) can be followed below.

What is called melting point is the temperature, or range, at which the solid turns liquid.

Turning to `Oc1ccc(F)c(O)c1F`, the melting point was 100 to 101 °C.

As to `Cn1ncc2c(c1=O)SCCNC2C(=O)Cc1ccccc1` (stereo not drawn), the melting point came out at 133 °C.

`Cc1cc(C(=O)N2CCCC2)ccc1[N+](=O)[O-]` came in with a melting point of 61.3 to 61.9 °C.

In turn, `O=C1NC(=O)C(c2cn3c4c(cccc24)CCC3)C1c1ccc(OCc2ccccc2)cc1` (stereo not drawn) yielded a melting point of 91 to 93 °C.

Regarding `CCOC(=O)C1=C(C)NC(N)=C(C(=O)OCC)C1Cc1cccs1` (stereo not drawn), the melting point was 170 °C.

Regarding `COc1cc(-c2ncn(-c3cc(OC)c(OC)c(OC)c3)c2-c2ccc(N(C)C)cc2)cc(OC)c1OC`, the melting point fell in the range of 169 to 171 °C.

On to `COc1ccc2c3c1OC1CC(O)C=CC31CCN(C(=O)Nc1ccccc1)C2` (stereo not drawn), for which the melting point fell in the range of 198 to 199 °C.

The molecule `CNCC(O)c1cn(C(c2ccccc2)(c2ccccc2)c2ccccc2)cn1` (stereo not drawn) had a melting point of 169 to 171 °C.

Regarding `CCCn1c(=O)c2c(N3CCN(C)CC3)cc(Cl)cc2n(Cc2ccccc2)c1=O`, the melting point was 120 to 121 °C.

Molecule `O=C(Cn1nnc2cccnc21)Nc1ccc(-n2nc(C(F)(F)F)cc2C2CC2)cc1` gave a melting point of 206 to 209 °C.

`O=[N+]([O-])c1ccc(O)cc1OCCO` showed a melting point of 167 °C.

In turn, `CC(O)CC(=O)c1cccc2c1nc(-c1c(F)cccc1F)n2Cc1c(F)cccc1F` (stereo not drawn) returned a melting point of 149 to 150 °C.

The molecule `O=c1[nH]c2cc([N+](=O)[O-])ccc2c(=O)n1S(=O)(=O)c1ccc(Cl)cc1` came in with a melting point of 258 to 260 °C.

The molecule `O=C1Nc2cccc(-c3cccc(NC(=O)c4ccc(O)cc4)c3)c2/C1=C/c1ccc[nH]1` showed a melting point of 236 to 238 °C.

Turning to `Cc1ccc(C)c(NC(=O)CCl)c1C`, the melting point lay in the range of 145 to 146 °C.

With `C[C@H](CSC(=O)C(C)(C)C)C(=O)N(CC(=O)O)C1CCCC1`, the melting point lay within 155 to 156 °C.

Consider `Clc1cccc(-c2ccc(Cl)nn2)c1`, for which the melting point fell in the range of 155 to 157 °C.

On to `Cc1c(Cl)c(OCC(=O)O)c(Cc2ccc3c(Cl)cccc3c2)c(O)c1C=O`, for which the melting point is 194 to 196 °C.

As to `CC(C)Nc1cccnc1N1CCN(C(=O)c2ccc(C(=O)NCCc3cccs3)cn2)CC1`, the melting point is 131 to 134 °C.

In turn, `Cc1cc(C)c2nc(CO)n(C)c2n1` registered a melting point of 178 to 179 °C.

In turn, `N#Cc1ccc(-c2ccc(OCC(CN3C(=O)c4ccccc4C3=O)N(O)C=O)cc2)cc1` (stereo not drawn) gave a melting point of 199 to 202 °C.

`CCOC(=O)c1c(C(=O)Cc2c(CCNCCc3ccccc3)cc3c(c2OC)OCO3)ccc(OC)c1OC`: the melting point was 102 to 104 °C.

Molecule `O=c1[nH]c(N[N+](=O)[O-])ncc1Cc1cccc2ccccc12` had a melting point of 226 to 227 °C.

`CC(=O)N(C)C(=O)Oc1cccc2c1OCO2` displayed a melting point of 48 to 50 °C.

As for `COc1cc2c(cc1OCc1ccccc1)CC(C)(C)N=C2C`, the melting point lay within 87.9 to 90 °C.

The molecule `CC(=O)c1cc(CC(=O)O)cc2c1NC(C(F)(F)F)CC2` (stereo not drawn) had a melting point of 173 to 174 °C.

`O=C1c2ccccc2C(=O)c2c(NC(=O)C3CC3)ccc(NC(=O)C3CC3)c21`: the melting point was above 200 °C.

Molecule `COc1cc2nc(N)nc(-c3cccc(Cl)c3)c2cc1OC` had a melting point of 242 to 245 °C.

`COc1ccc(-c2ccc(O)cc2C=O)cc1Cl` yielded a melting point of 168 to 170 °C.

`c1cncc(C2CCc3ccccc3O2)c1` (stereo not drawn) registered a melting point of 59 to 60 °C.

With `CN(C)CCOc1ccc(Nc2ncc3c(n2)N(C)C(=O)N(c2c(Cl)cccc2Cl)C3)cc1`, the melting point fell in the range of 173 to 174 °C.

`Cc1c(-c2ccccc2)[nH]c(N2CCCC2=O)c1C#N` had a melting point of 140 to 141 °C.

For the molecule `COC(=O)c1csc(Cl)c1NC(C)=O`, the melting point lay within 119 to 121 °C.

Take `NC(=O)COC(=O)c1c(Cl)ccc(Cl)c1Cl`: the melting point is 158 to 160 °C.

Consider `Cc1cccc(NC(=O)NC2N=C(c3ccccc3F)c3ccccc3N(Cc3nc4ccccc4[nH]3)C2=O)c1` (racemic), for which the melting point is 165 to 167 °C.

`CCOC(=O)c1c(C(F)(F)F)nc(C(F)F)c(C(=O)OC)c1NC1CC1`: the melting point was 68 to 69.5 °C.

On to `CCOC(=O)CC(NC(=O)C1=C(C(=O)Nc2ccc(Cl)cc2F)CCCC1)C(=O)OCC` (stereo not drawn), for which the melting point was in the range of 109 to 110 °C.

`COC(=O)C=Cc1ccc(OCc2nc(-c3ccccc3)c(C)s2)cc1` returned a melting point of 142 to 143 °C.

Take `CCCCC(CC)COC(=O)c1cc(CN(CC(=O)O)CC(=O)O)c(O)c(CN(CC(=O)O)CC(=O)O)c1` (stereo not drawn): the melting point lay within 133 to 141 °C.

Regarding `Nc1cccc(C2=NNC(=O)Cc3cc4c(cc32)OCO4)c1`, the melting point was in the range of 118 to 122 °C.

With `COc1cc(C(F)(F)F)cc(Cl)c1-n1nc(C#N)c(S(=O)C(F)(F)F)c1N` (stereo not drawn), the melting point turned out to be 195 °C.

Take `FC(F)(F)c1ccc2c(C3CCN(CCCOc4cccc5[nH]ccc45)CC3)c[nH]c2c1`: the melting point was in the range of 92 to 97 °C.

For `CCCCOc1cc(CCC(=O)O)n(Cc2ccc(C(F)(F)F)cc2Cl)n1`, the melting point was 125 to 126 °C.

`CC(C)c1cnn2c(O)cc(O)nc12` registered a melting point of 242 to 243 °C.

Molecule `CNCc1cccc(C2CCN(c3cc4c(cc3F)c(=O)c(C(=O)O)cn4C3CC3)C2)c1` (stereo not drawn) had a melting point of 239 to 240 °C.

On to `CC(C(N)=O)n1c(-c2ccc(Cl)cc2)nc2cccnc21` (stereo not drawn), for which the melting point lay in the range of 202 to 204 °C.

As to `CCCCNC(=S)Nc1ccc(NNC=O)cc1`, the melting point was in the range of 129 to 131 °C.

As to `COC(=O)C=Cc1cc([N+](=O)[O-])ccc1Cl`, the melting point lay in the range of 159 to 162 °C.

The molecule `CN1CCC(=O)C(C(c2ccc(F)cc2)c2ccc(F)cc2)C1` (stereo not drawn) had a melting point of 127 to 129 °C.

On to `COc1ccccc1-n1c(=O)[nH]c2c(C(N)=O)nc(-c3cccc4[nH]ccc34)nc21`, for which the melting point lay within 312 to 313 °C.

The molecule `CON=C(C)C(=NOC)C(C)=NOCc1ccccc1CON=CC(=O)OC` registered a melting point of 105 °C.

On to `CC1(C)CC(SCc2c(C(F)(F)F)n[nH]c2Cl)=NO1`, for which the melting point is 120 to 122 °C.

On to `Cc1c(C)c2c(c(C)c1NC(=O)NCC(C)(C)CO)C(c1ccc(C(C)C)cc1)CO2` (stereo not drawn), for which the melting point fell in the range of 117 to 118 °C.

Molecule `Cc1cccc(NC(=O)NCC(=O)N(CC(=O)OC(C)(C)C)c2ccccc2C(=O)N2CCCC(C)(C)C2)c1` returned a melting point of 207 °C.

Regarding `COC(=O)CCC(=O)c1ccc(N)cc1`, the melting point fell in the range of 160 to 162 °C.

For the molecule `CC(=Cc1ccc(C(C)(C)C)cc1)C[N+]1([O-])CCCCC1`, the melting point lay in the range of 82 to 88 °C.

The molecule `COc1nc(OC)c(C(C)C)c(C(C#N)c2cc(C)cc(Br)c2)n1` (stereo not drawn) registered a melting point of 123 to 124 °C.

For the molecule `CSc1c(C(Cc2ccc(Cl)cc2)C(=O)O)ccc2c3ccccc3n(Cc3ccc(Cl)cc3)c12` (stereo not drawn), the melting point fell in the range of 104 to 107 °C.

For `CCOC(=O)CCc1cc(-c2cc3ccccc3c(=O)o2)ccc1O`, the melting point was 179 to 180 °C.

With `CCCc1c(C(=O)NC2CC2)nnn1-c1ccc(C(=O)NCC)cc1O`, the melting point worked out at 203 °C.

For the molecule `N#Cc1cc(-c2ccoc2)c2ccc(COc3cc(F)cc(-c4ccccn4)c3)cc2n1`, the melting point was in the range of 198 to 200 °C.

On to `CC(C)(C)c1ccc(Oc2ccc([N+](=O)[O-])cc2C(=O)Nc2ccccc2)cc1`, for which the melting point was 138 to 140 °C.

`CN1CCN(C(=O)CCC(=O)c2ccc3[nH]c4ncc(Cl)cc4c3c2)CC1`: the melting point was 233 °C.

`CCn1ncc2nc(C(N)=O)c(-c3ccccc3)nc21` registered a melting point of 189 to 190 °C.

Consider `CSc1ncnc2c1ncn2COC(COC(C)=O)COC(C)=O`, for which the melting point was 191 to 193 °C.

Turning to `COc1ccc(C2(O)CCN(C(=O)OCc3ccccc3)CC2)cc1`, the melting point came out at 98 °C.

Consider `C[C@@H]1C(=O)C[C@H]2C[C@@H]1OO[C@@]2(C)/C=C\c1ccc(Br)c2ccccc12`, for which the melting point was 167 °C.

Molecule `CCNS(=O)(=O)c1cncc([N+](=O)[O-])c1` displayed a melting point of 117 to 118 °C.

Consider `CON=C(C(=O)N[C@@H]1C(=O)N[C@@H]1C(=O)N(C)C)c1csc(NC(=O)CCl)n1` (relative stereo), for which the melting point fell in the range of 160 to 165 °C.

`O=C(O)c1cc2ccccc2c(=O)s1` yielded a melting point of 260 to 262 °C.

Molecule `O=C1NC(=O)C(=Cc2ccc(SCCc3ccccc3)cc2)S1` came in with a melting point of 182 to 183 °C.

On to `O=C(NC1CCCc2sccc21)N1CCOCC1` (stereo not drawn), for which the melting point was 152 to 154 °C.

Regarding `O=C1c2ccccc2C(=O)N1OCc1ccc(F)c(Oc2ccccc2)c1`, the melting point amounted to 88.2 °C.

In the case of `COc1ccc(C(=O)Nc2ccc3ccc(CO)nc3n2)cc1`, the melting point is 212 °C.

With `N#CC(C(=O)Nc1ccccn1)C(=O)c1nn(-c2ccccc2)c2c1CSc1ccccc1-2` (stereo not drawn), the melting point was 258 to 260 °C.

In turn, `CCc1ccc(Nc2c(C(=O)NOC(CO)CO)ccc(F)c2F)c(F)c1` came in with a melting point of 91 to 93 °C.

`COc1cc(-c2ccccc2)nc(-c2ccc(C)cc2)n1` displayed a melting point of 99 to 100 °C.

The molecule `Cc1cc(C2N(c3ccccc3)CCN2c2ccccc2)cc(C)c1O` came in with a melting point of 166 to 167 °C.

For `COC(=O)c1cnc2cccc(OC)c2c1`, the melting point is 102 °C.

Molecule `COc1cc(C(=O)c2nc(C(N)=O)c3ccccn23)ccc1N` had a melting point of 241 °C.

The molecule `CC(=O)OCC(OC(C)=O)c1nc2c(C(F)(F)F)cccc2c(O)c1C(=O)Nc1nccs1` (stereo not drawn) showed a melting point of 270 °C.

Regarding `CS(=O)(=O)N(Cc1ccncc1)c1ccc(F)cc1F`, the melting point fell in the range of 101 to 105 °C.

On to `CCC(=O)Nc1c(Cl)cnn1-c1ccc(Cl)c(Cl)c1Cl`, for which the melting point was 122 °C.

Molecule `O=C(NC(=O)c1ccc2ncccc2c1)NC1CCN(Cc2ccc3cc(F)ccc3c2)CC1` returned a melting point of 200 to 201 °C.

With `O=C(Nc1ccccc1S(=O)(=O)NCC1CCCCC1)N[C@@H](Cc1ccc(NC(=O)c2c(Cl)cccc2Cl)cc1)C(=O)O`, the melting point stood at 185 °C.

The molecule `CNc1nc(N)nc2c1ncn2C1OC(CO)C(O)C1F` (stereo not drawn) showed a melting point of 172 °C.

Consider `O=C(O)c1nn(-c2ccc(Cl)cc2)c2c1CCCC2`, for which the melting point came to 218 °C.

`OCCOC12CC(CO)CNC1Cc1c[nH]c3cccc2c13` (stereo not drawn): the melting point was in the range of 198 to 205 °C.
